Measured values reported in patent publication US20250213471A1, “PEMETREXED DISODIUM LIQUID COMPOSITION, PREPARATION METHOD THEREFOR AND USE THEREOF” (SHANGHAI AURORA BIOTECHNOLOGY CO., LTD., priority 2022, published 2025).
Several values for one entry are separate records, joined by “and”; a condition that tells them apart may be missing. Equal entries are not always repeated.

B1: Positive control: 8 mg/mL egg white albumin solution, positive control of the anaphylaxis experiment (protein, UniProt P01012 2-386, looked up)
Ovalbumin: GSIGAASMEFCFDVFKELKVHHANENIFYCPIAIMSALAMVYLGAKDSTRTQINKVVRFDKLPGFGDSIEAQCGTSVNVHSSLRDILNQITKPNDVYSFSLASRLYAEERYPILPEYLQCVKELYRGGLEPINFQTAADQARELINSWVESQTNGIIRNVLQPSSVDSQTAMVLVNAIVFKGLWEKAFKDEDTQAMPFRVTEQESKPVQMMYQIGLFRVASMASEKMKILELPFASGTMSMLVLLPDEVSGLEQLESIINFEKLTEWTSSNVMEERKIKVYLPRMKMEEKYNLTSVLMAMGITDVFSSSANLSGISSAESLKISQAVHAAHAEINEAGREVVGSAEAGVDAASVSEEFRADHPFLFCIKHIATNAVLFFGRCVSP

How the values were obtained:
human plasma protein = test: Human plasma protein binding rate by equilibrium dialysis; conditions: positive, 5 μM
guinea pigs = test: Active systemic anaphylaxis experiment in guinea pigs; conditions: first challenge
Experimental: The administration doses were 20 m/kg and 40 mg/kg and were about 1.5 and 3 times of the highest clinical intended dose. The day of the first administration was defined as day 1 of the experiment. Sensitization was performed 1 time every other day. 3 consecutive sensitizations were performed (i.e., sensitization on days 1, 3, and 5 of the experiment). On day 14 and day 21 after the last sensitization (i.e., on day 19 and day 26 of the experiment), the guinea pigs were challenged by intravenous injection at 2 times the dose of the sensitization dose, and the systemic reaction and death after the challenge were observed.

[1] = positive control group (8 mg/mL, 0.5 mL/guinea pig sensitization, i.v.)

Molecule	Binding rate (%) (human plasma protein; human plasma)	Administration side (peak area ratio), Mean (human plasma protein)	Administration side (peak area ratio), single replicates N = 1-3 (human plasma protein)	Receiving side (peak area ratio), Mean (human plasma protein)	Receiving side (peak area ratio), single replicates N = 1-3 (human plasma protein)	T0 h (peak area ratio), Mean (human plasma protein)	T0 h (peak area ratio), single replicates N = 1-3 (human plasma protein)	T5 h (peak area ratio), Mean (human plasma protein)	T5 h (peak area ratio), single replicates N = 1-3 (human plasma protein)	Stability (%) (human plasma protein; T5 h vs T0 h)	Time to death of all guinea pigs after challenge administration (guinea pigs; positive control group)	Anaphylaxis Degree of occurrence (guinea pigs; [1])	Anaphylaxis Incidence (%) (guinea pigs; [1])	Number of symptoms of anaphylaxis and occurrence proportion: 0 (guinea pigs; [1])	Number of symptoms of anaphylaxis and occurrence proportion: 1-4 (guinea pigs; [1])	Number of symptoms of anaphylaxis and occurrence proportion: 5-10 (guinea pigs; [1])	Number of symptoms of anaphylaxis and occurrence proportion: 11-19 (guinea pigs; [1])	Number of symptoms of anaphylaxis and occurrence proportion: 20 (guinea pigs; [1])
CC(C)NCC(O)COc1cccc2ccccc12 (stereo not drawn) [Propranolol]	87.27%	3.774	3.835 and 3.690 and 3.798	0.480	0.486 and 0.480 and 0.475	5.286	5.491 and 5.043 and 5.325	4.896	4.909 and 4.831 and 4.947	92.61%	–	–	–	–	–	–	–	–
B1	–	–	–	–	–	–	–	–	–	–	≤ 7 min	extremely positive	100%	0	0	0	0	6/6
